US10766869B2, “Triazoles for the treatment of demyelinating dieases” (Vertex Pharmaceuticals Incorporated, priority 2015, dated 2020)
Read-outs that look alike come from different tables or passages of the source.

Test system: primary rat mixed cortical cells
Experiment: In vitro myelination assay (MBP positive myelin strands, fold myelin pixels above background)
Type: cell-based
Conditions: Rattus norvegicus; for fold induction at 1 µM: 1.0 μM compound; for fold induction at 10 µM: 10.0 μM compound
How it was run: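 P1 rat mixed cortical cultures (neurons, OPCs, oligodendrocytes, astrocytes, microglia) grown 14 days at 37 °C with compound, half-medium refreshed with compound on days 6 and 10. Fixed cells stained for MBP; MBP-positive myelin strand pixels per well quantified by automated imaging, reported as fold over no-compound baseline at 1.0 and 10.0 μM.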

[1] = relative to baseline of no added compound, read-out: Fold myelin pixels above background
[2] = read-out: Fold myelin pixels above background relative to baseline of no added compound
[3] = relative to baseline of no added compound, read-out: Fold myelin pixels above background, 1.0 μM
[4] = relative to baseline of no added compound, read-out: Fold myelin pixels above background, 10.0 μM

SMILES | fold induction at 1 µM [1] | fold induction at 10 µM [1] | fold induction at 1 µM [3] | fold induction at 10 µM [4] | other results
Fc1ccc(-n2cnc(Nc3cc(C(F)(F)F)cc(N4CCN(C5COC5)CC4)n3)n2)cc1F [Compound 546, N-[1-(3,4-difluorophenyl)-1,2,4-triazol-3-yl]-6-[4-(oxetan-3-yl)piperazin-1-yl]-4-(trifluoromethyl)pyridin-2-amine] | 1 to 10 | 10 to 100 | – | – | –
CC(=O)N[C@H]1C[C@H](Oc2cc(C)cc(Nc3ncn(-c4cc(F)cc(F)c4)n3)c2)C1 [Compound 813, N-[3-[3-[[1-(3,5-difluorophenyl)-1,2,4-triazol-3-yl]amino]-5-methyl-phenoxy]cyclobutyl]acetamide] | – | – | – | – | fold induction at 1 µM [2]: 10 to 100; fold induction at 10 µM [2]: 1 to 10
CCc1cc(Nc2ncn(-c3ccnc(F)c3)n2)cc(N2CCN(C3COC3)CC2)c1 [Compound 16, N-[3-ethyl-5-[4-(oxetan-3-yl)piperazin-1-yl]phenyl]-1-(2-fluoro-4-pyridyl)-1,2,4-triazol-3-amine] | – | – | 100 to 1000 | 10 to 100 | –
Fc1cc(F)cc(-n2cnc(Nc3cc(C(F)(F)F)cc(N4CCN([C@@H]5CCOC5)CC4)n3)n2)c1 (single isomer, unassigned) [Compound 672] | 1 to 10 | 1 to 10 | – | – | –
Cc1cc(Nc2ncn(-c3cc(F)cc(F)c3)n2)cc(N2CCCN(C3COC3)CC2)c1 [Compound 637, 1-(3,5-difluorophenyl)-N-[3-methyl-5-[4-(oxetan-3-yl)-1,4-diazepan-1-yl]phenyl]-1,2,4-triazol-3-amine] | 100 to 1000 | ≤ 1 | – | – | –
Cc1cc(Nc2ncn(-c3cc(F)cc(F)c3)n2)cc([C@]2(O)CCN(C3COC3)C2)c1 [Compound 487, (3R)-3-[3-[[1-(3,5-difluorophenyl)-1,2,4-triazol-3-yl]amino]-5-methyl-phenyl]-1-(oxetan-3-yl)pyrrolidin-3-ol] | 100 to 1000 | 1 to 10 | – | – | –
Cc1cc(Nc2ncn(-c3cc(F)cc(F)c3)n2)nc(N2CC3(CCO3)C2)c1 [Compound 571, N-[1-(3,5-difluorophenyl)-1,2,4-triazol-3-yl]-4-methyl-6-(3-oxa-6-azaspiro[3.3]heptan-6-yl)pyridin-2-amine] | ≤ 1 | 1 to 10 | – | – | –
Cc1cc(NCC2CC2)cc(Nc2ncn(-c3cc(F)cc(F)c3)n2)c1 [Compound 942, N3-(cyclopropylmethyl)-N1-[1-(3,5-difluorophenyl)-1,2,4-triazol-3-yl]-5-methyl-benzene-1,3-diamine] | – | – | – | – | fold induction at 1 µM [2]: 1 to 10; fold induction at 10 µM [2]: ≤ 1
Cc1cc(Nc2ncn(-c3ccccn3)n2)cc(N2CCN(C3COC3)CC2)c1 [Compound 104, N-[3-methyl-5-[4-(oxetan-3-yl)piperazin-1-yl]phenyl]-1-(2-pyridyl)-1,2,4-triazol-3-amine] | – | – | 10 to 100 | 100 to 1000 | –
COC1CN(c2cc(C)cc(Nc3ncn(-c4cc(F)cc(F)c4)n3)c2)C1 [Compound 2, 1-(3,5-difluorophenyl)-N-[3-(3-methoxyazetidin-1-yl)-5-methyl-phenyl]-1,2,4-triazol-3-amine] | – | – | 100 to 1000 | 100 to 1000 | –
Cc1cc(Nc2ncn(-c3ccc(F)c(F)c3)n2)cc(OCC2CCOCC2)c1 [Compound 627, 1-(3,4-difluorophenyl)-N-[3-methyl-5-(tetrahydropyran-4-ylmethoxy)phenyl]-1,2,4-triazol-3-amine] | 1 to 10 | 10 to 100 | – | – | –
Cc1cc(Nc2ncn(-c3cccnc3)n2)cc(N2CCN(C)CC2)c1 [Compound 297, N-[3-methyl-5-(4-methylpiperazin-1-yl)phenyl]-1-(3-pyridyl)-1,2,4-triazol-3-amine] | – | – | 10 to 100 | 10 to 100 | –
CCc1cc(Nc2ncn(-c3cc(F)ccc3F)n2)cc(N2CCN(C3COC3)CC2)c1 [Compound 417, 1-(2,5-difluorophenyl)-N-[3-ethyl-5-[4-(oxetan-3-yl)piperazin-1-yl]phenyl]-1,2,4-triazol-3-amine] | 100 to 1000 | 1000 to 10000 | – | – | –
COc1ccc(-n2cnc(Nc3cc(F)cc(N4CCN(C5COC5)CC4)c3)n2)cc1F [Compound 781, 1-(3-fluoro-4-methoxy-phenyl)-N-[3-fluoro-5-[4-(oxetan-3-yl)piperazin-1-yl]phenyl]-1,2,4-triazol-3-amine] | 1 to 10 | ≤ 1 | – | – | –
Cc1cc(Nc2ncn(-c3cc(F)cc(F)c3)n2)cc(N2CC(C(=O)N3CCCC3)C2)c1 [Compound 773, [1-[3-[[1-(3,5-difluorophenyl)-1,2,4-triazol-3-yl]amino]-5-methyl-phenyl]azetidin-3-yl]-pyrrolidin-1-yl-methanone] | 10 to 100 | ≤ 1 | – | – | –
Cc1cc(Nc2ncn(-c3cc(F)cc(F)c3)n2)cc(N2CCOC(CN(C)C)C2)c1 (stereo not drawn) [Compound 1018, 1-(3,5-difluorophenyl)-N-[3-[2-[(dimethylamino)methyl]morpholin-4-yl]-5-methyl-phenyl]-1,2,4-triazol-3-amine] | – | – | – | – | fold induction at 1 µM [2]: 10 to 100; fold induction at 10 µM [2]: ≤ 1
Cc1cc(Nc2ncn(-c3cc(F)cc(OC(C)C)c3)n2)cc(N2CCN(C3COC3)CC2)c1 [Compound 415, 1-(3-fluoro-5-isopropoxy-phenyl)-N-[3-methyl-5-[4-(oxetan-3-yl)piperazin-1-yl]phenyl]-1,2,4-triazol-3-amine] | 100 to 1000 | ≤ 1 | – | – | –
Fc1ccc(-n2cnc(Nc3cc(C4CC4)nc(N4CC[C@@H](F)C4)c3)n2)cc1F [Compound 498, 2-cyclopropyl-N-[1-(3,4-difluorophenyl)-1,2,4-triazol-3-yl]-6-[(3R)-3-fluoropyrrolidin-1-yl]pyridin-4-amine] | 100 to 1000 | 100 to 1000 | – | – | –
COc1nccc(-n2cnc(Nc3cc(C)cc(N4CCN(C5COC5)CC4)c3)n2)n1 [Compound 30, 1-(2-methoxypyrimidin-4-yl)-N-[3-methyl-5-[4-(oxetan-3-yl)piperazin-1-yl]phenyl]-1,2,4-triazol-3-amine] | – | – | ≤ 1 | 100 to 1000 | –
Cc1cc(Nc2ncn(-c3ccccc3)n2)cc(N2CCN(C3CC3)CC2)c1 [Compound 149, N-[3-(4-cyclopropylpiperazin-1-yl)-5-methyl-phenyl]-1-phenyl-1,2,4-triazol-3-amine] | – | – | 1000 to 10000 | 10 to 100 | –
CCc1cc(Nc2ncn(-c3ccc(F)c(F)c3)n2)cc(N2CCN(C3COC3)CC2)c1 [Compound 69, 1-(3,4-difluorophenyl)-N-[3-ethyl-5-[4-(oxetan-3-yl)piperazin-1-yl]phenyl]-1,2,4-triazol-3-amine] | – | – | 1000 to 10000 | 10 to 100 | –
[2H]C1([2H])N(CCO)C([2H])([2H])C([2H])([2H])N(c2cc(C)cc(Nc3ncn(-c4cc(F)cc(F)c4)n3)c2)C1([2H])[2H] [Compound 922, 2-[2,2,3,3,5,5,6,6-octadeuterio-4-[3-[[1-(3,5-difluorophenyl)-1,2,4-triazol-3-yl]amino]-5-methyl-phenyl]piperazin-1-yl]ethanol] | – | – | – | – | fold induction at 1 µM [2]: 1 to 10; fold induction at 10 µM [2]: ≤ 1
Cc1cc(Nc2ncn(-c3cc(F)cc(F)c3)n2)cc(N2CCOC3(CC3)C2)c1 [Compound 1035, 1-(3,5-difluorophenyl)-N-[3-methyl-5-(4-oxa-7-azaspiro[2.5]octan-7-yl)phenyl]-1,2,4-triazol-3-amine] | – | – | – | – | fold induction at 1 µM [2]: 1 to 10; fold induction at 10 µM [2]: 1 to 10
Cc1cc(Nc2ncn(-c3cc(F)cc(F)c3)n2)cc(N2CCN(C(=O)C(F)(F)F)CC2)c1 [Compound 352, 1-[4-[3-[[1-(3,5-difluorophenyl)-1,2,4-triazol-3-yl]amino]-5-methyl-phenyl]piperazin-1-yl]-2,2,2-trifluoro-ethanone] | – | – | ≤ 1 | 100 to 1000 | –
N#Cc1cc(Nc2ncn(-c3cccnc3)n2)cc(N2CCN(C3COC3)CC2)c1 [Compound 842, 3-[4-(oxetan-3-yl)piperazin-1-yl]-5-[[1-(3-pyridyl)-1,2,4-triazol-3-yl]amino]benzonitrile] | – | – | – | – | fold induction at 1 µM [2]: 1 to 10; fold induction at 10 µM [2]: ≤ 1
CCC1COCCN1CCNc1cc(C)cc(Nc2ncn(-c3cc(F)cc(F)c3)n2)c1 (stereo not drawn) [Compound 872, N3-[1-(3,5-difluorophenyl)-1,2,4-triazol-3-yl]-N1-[2-(3-ethylmorpholin-4-yl)ethyl]-5-methyl-benzene-1,3-diamine] | – | – | – | – | fold induction at 1 µM [2]: 10 to 100; fold induction at 10 µM [2]: ≤ 1
Cc1cc(Nc2ncn(-c3ccc(F)c(F)c3)n2)cc(N2CCN(C)CC2)c1 [Compound 317, 1-(3,4-difluorophenyl)-N-[3-methyl-5-(4-methylpiperazin-1-yl)phenyl]-1,2,4-triazol-3-amine] | – | – | 100 to 1000 | 10 to 100 | –
Fc1cc(Nc2ncn(-c3cccc(C(F)(F)F)c3)n2)cc(N2CCOCC2)c1 [Compound 181, N-(3-fluoro-5-morpholino-phenyl)-1-[3-(trifluoromethyl)phenyl]-1,2,4-triazol-3-amine] | – | – | ≤ 1 | 100 to 1000 | –
COCc1cc(-n2cnc(Nc3cc(C4CC4)cc(N4CCN(C5COC5)CC4)c3)n2)ncn1 [Compound 353, N-[3-cyclopropyl-5-[4-(oxetan-3-yl)piperazin-1-yl]phenyl]-1-[6-(methoxymethyl)pyrimidin-4-yl]-1,2,4-triazol-3-amine] | – | – | 1000 to 10000 | 100 to 1000 | –
COC1(CNc2cc(C)cc(Nc3ncn(-c4cc(F)cc(F)c4)n3)c2)CCC1 [Compound 1029, N1-[1-(3,5-difluorophenyl)-1,2,4-triazol-3-yl]-N3-[(1-methoxycyclobutyl)methyl]-5-methyl-benzene-1,3-diamine] | – | – | – | – | fold induction at 1 µM [2]: 10 to 100; fold induction at 10 µM [2]: 10 to 100
